In US11020449B2, “Use of the GK-1 peptide as an antitumoral and/or antimetastatic agent” (UNIVERSIDAD NACIONAL AUTÓNOMA DE MÉXICO, priority 2016, dated 2021):
Read-outs that look alike come from different tables or passages of the source.

Tests used:
[1] = tested on: TCD4+ and TCD8+ lymphocyte populations; details: cited from earlier work
4T1 cells [2] = tested on: 4T1 cells
Protocol: The 4T1 cell line (American Type Culture Collection, Manassas, Va.) was used to induce a neoplasia emulating breast cancer; according to the natural history of the disease, metastasis to lung should be observed [Aslakson C. J. et al., Cancer Res, 1992. 52(6): 1399-405; Mi Z et al., J Biol Chem, 2004. 279(45):46659-67]. The 4T1 cell line was cultured in RPMI medium (Gibco, Grand Island, N.Y.) supplemented with 10% of heat-inactivated fetal bovine serum, 10 U/mL of penicillin, and 100 μg/mL of streptomycin, at 37° C. under 95% relative humidity and 5% CO2. Cultured cells were recovered by trypsinization (0.25% trypsin-0.53 mM EDTA) and washed three times with cold serum-free RPMI medium before subcutaneous implanting. About 1×10^3 4T1 cells were subcutaneously injected in the right mammary gland in BALB/cAnN mice. Tumor induction was determined by the appearance of 1 mm×1 mm solid tumors (palpable tumor), between 18 and 20 days after cell implantation. Once the established tumors reached that size, mice were distributed into two groups: Group 1 (G1) was intravenously administered with a solution of 10 μg of GK-1 in 100 μL of ISS (corresponding to 0.5 mg/kg); Group 2 (G2) was administered with ISS (100 μL) by the same route. The administration was repeated weekly at different times.
All animals were weighed before treatment, and tumor growth was continuously recorded. Tumor volume was calculated according to the following formula [Carlsson G. et al., J Cancer Res Clin Oncol, 1983. 105(1): 20-23]: Volume (mm^3)=πLW^2/6, where L is the largest side and W is the smallest side.
At the day 39 after cell implanting, animals were euthanized in accordance with the guidelines in the United Kingdom Coordinating Committee on Cancer Research (UKCCCR). The primary tumor, spleen, lungs, liver, and brain were dissected. In total, five separate experiments were performed.
As mentioned in the Example of Embodiment 1, once palpable tumors were developed in mice (G1: females X=6, males X=4; G2: females X=6, males X=4 per experiment), tumor volume was determined every third day for 39 days, with electronic Vernier.

influenza vaccine = details: cited from earlier work
[3] = tested on: dendritic cells (DCs) loaded with the MAGE antigen; details: immunotherapy against murine melanoma; cited from earlier work
[4] = tested on: 4T1 mammary carcinoma murine model
Protocol: Lungs, liver, spleen, brain, and primary tumor were dissected from mice in the groups G1 and G2 of the Example of Embodiment 3, to determine the soluble factors present in the tumor microenvironment and in metastatic-associated organs; in order to obtained a protein extract, 5 mg of each tissue were weighed and placed in 300 μL of lysis buffer with protease inhibitors, then were homogenized. Finally, homogenates were centrifuged for 20 min at 13 000 rpm at 4° C., collecting the supernatants (protein extract). Additionally, serum was isolated from blood samples obtained from all mice. Serum and protein extract samples were processed through the Magpix Luminex system (xPonent software) to determine the concentration of cytokines, chemokines, and growth factors.
Data in Tables 2, 3, and 4 correspond to spleen, lung, and brain soluble factor concentrations expressed in pg/mg of protein. A random sample of 6 mice was taken from 5 independent experiments. * P<0.05.

4T1 cells [5] = assay: Survival rate in mice with 4T1 breast cancer; format: in vivo, BALB/cAnN mice; details: log-rank test
Protocol: As used in the following Examples of Embodiment, GK-1 was synthesized under good manufacturing practices by USV, LTD, with a purity higher than 95%. The peptide was intravenously administered to mice at a dose of 0.5 mg/kg.
Four to six weeks-old female and male BALB/cAnN mice were used, with a weight range of 17-23 g for females and 20-27 g for males. All mice were maintained in pathogen-free conditions, as required by the Mexican Official Regulation NOM-062-ZOO-1999.
J. et al., Cancer Res, 1992. […] 279(45):46659-67]. […] The administration was repeated weekly at different times.
To determine the survival rate in mice with breast cancer, 1×10^3 4T1 cells were implanted to 40 BALB/cAnN mice as described in the Example of Embodiment 1; 10 males and 10 females were included in each group (G1 and G2). The administration schedule described in the Example of Embodiment 1 was repeated weekly after a solid tumor development, and for 62 days after cell implant.

4T1 cells [6] = details: day 39, five experiments
From the text: It is known that the metastasis sites in the 4T1 cell-induced breast cancer murine model are lungs, brain, liver, and bone [Aslakson C. J. et al., Cancer Res. 1992, 52(6): 1399-405; Mi Z. et al., J Biol Che. 2004; 279(45): 46659-67]. Therefore, to assess the antimetastatic effect of GK-1, lungs, liver, and brain from mice in G1 and G2 groups in the Example of Embodiment 3 were recovered and fixed with a 10% formaldehyde solution to macroscopically identify any metastatic focus on these organs.

For “G-Y-Y-Y-P-S-D-P-N-T-F-Y-A-P-P-Y-S-A (GYYYPSDPNTFYAPPYSA; tapeworm) [GK-1]”, the “proliferation of TCD4+ and TCD8+ lymphocyte populations” value [1] is given as “increase the proliferation”, the Tumor weight (4T1 cells [2]; Exp 1, day 39) is given as 0.825 ± 0.391 g and the Tumor weight (4T1 cells [2]; Exp 2, day 39) is given as 0.991 ± 0.507 g. The Tumor weight (4T1 cells [2]; Exp 3, day 39) was 1.150 ± 0.939 g, the Tumor weight (4T1 cells [2]; Exp 4, day 39) was 1.477 ± 0.889 g and the Tumor weight (4T1 cells [2]; Exp 5, day 39) was 0.587 ± 0.339 g. The Tumor weight (4T1 cells [2]; Total of five experiments, day 39) was 1.044 ± 0.697 g, the “reduction in tumor weight with respect to untreated mice” value (4T1 cells [2]; day 39) was 27.8% and the Tumor weight (4T1 cells [2]; day 39, text, five experiments) was 1.04 ± 0.70 g. The “tumor volume versus untreated mice” value (4T1 cells [2]; every third day for 39 days) was “lower tumor volume than untreated mice, the difference was not statistically significant”, the “infiltrate of mononuclear cells to the lung parenchyma” value (influenza vaccine; a few days after subcutaneous administration) was “promotes the infiltrate of mononuclear cells” and the “titer of specific IgG antibodies” value (influenza vaccine; young and senile mice, influenza vaccine adjuvant) was “increasing the titer of specific IgG antibodies”. For the same substance, the “activation of MAGE-loaded DCs” value [3] was “increase in the activation of these DCs”, the CCL2 concentration ([4]; Brain) was 3.44E+00 pg/mg of protein and the CCL3 concentration ([4]; Brain) was 1.40E+01 pg/mg of protein. For the same substance, the CXCL9 concentration ([4]; Brain) was 1.44E+02 pg/mg of protein, the GM-CSF concentration ([4]; Brain) was 2.53E+01 pg/mg of protein and the IL-1α concentration ([4]; Brain) was 1.44E+01 pg/mg of protein. The IL-2 concentration ([4]; Brain) was 6.02E+01 pg/mg of protein, the IL-4 concentration ([4]; Brain) was 1.36E+02 pg/mg of protein and the IL-5 concentration ([4]; Brain) was 1.18E+02 pg/mg of protein. The IL-12 concentration ([4]; Brain) was 5.29E+00 pg/mg of protein, the IL-17 concentration ([4]; Brain) was 8.06E+01 pg/mg of protein and the TNF-α concentration ([4]; Brain) was 1.26E+01 pg/mg of protein. The bFGF concentration ([4]; Brain) was 1.16E+04 pg/mg of protein, the CCL2 concentration ([4]; Lung) was 4.71E+01 pg/mg of protein and the CCL3 concentration ([4]; Lung) was 5.36E+01 pg/mg of protein. The CXCL9 concentration ([4]; Lung) was 3.88E+03 pg/mg of protein, the GM-CSF concentration ([4]; Lung) was 4.06E+01 pg/mg of protein and the IL-1α concentration ([4]; Lung) was 1.50E+02 pg/mg of protein. For the same substance, the IL-2 concentration ([4]; Lung) was 6.28E+01 pg/mg of protein, the IL-4 concentration ([4]; Lung) was 1.49E+02 pg/mg of protein and the IL-5 concentration ([4]; Lung) was 2.06E+02 pg/mg of protein. The IL-12 concentration ([4]; Lung) was 3.83E+00 pg/mg of protein, the IL-17 concentration ([4]; Lung) was 6.22E+00 pg/mg of protein and the TNF-α concentration ([4]; Lung) was 3.21E+01 pg/mg of protein. The bFGF concentration ([4]; Lung) was 3.61E+03 pg/mg of protein, the CCL2 concentration ([4]; Spleen) was 1.19E+01 ± 4.41E+00 pg/mg of protein and the CCL3 concentration ([4]; Spleen) was 4.99E+01 ± 1.51E+01 pg/mg of protein. For the same substance, the CXCL9 concentration ([4]; Spleen) was 2.31E+04 ± 1.36E+04 pg/mg of protein, the GM-CSF concentration ([4]; Spleen) was 3.79E+01 ± 1.60E+01 pg/mg of protein and the IL-1α concentration ([4]; Spleen) was 6.28E+02 ± 2.42E+02 pg/mg of protein. For the same substance, the IL-2 concentration ([4]; Spleen) was 6.65E+01 ± 1.05E+01 pg/mg of protein, the IL-4 concentration ([4]; Spleen) was 7.03E+01 ± 9.56E+01 pg/mg of protein and the IL-5 concentration ([4]; Spleen) was 1.65E+02 ± 1.00E+02 pg/mg of protein. The IL-12 concentration ([4]; Spleen) was 8.06E+01 ± 3.61E+01 pg/mg of protein, the IL-17 concentration ([4]; Spleen) was 2.98E+00 ± 3.01E+00 pg/mg of protein and the TNF-α concentration ([4]; Spleen) was 1.00E+02 ± 2.46E+01 pg/mg of protein. For the same substance, the bFGF concentration ([4]; Spleen) was 2.30E+04 ± 3.54E+03 pg/mg of protein, the “cytokine profile in serum or liver samples versus G2” value ([4]; serum, liver) was “no differences were found” and the “survival with respect to saline-treated mice (Kaplan-Meyer)” value (4T1 cells [5]) was “significantly increased survival”. The “proportion of mice with lung metastatic foci within the 0-20 range” value (4T1 cells [6]) was 67%.
